In publication PMC12332667, “Role of Structural Modifications in Peptidomimetic Compounds as Potential Antimicrobial Agents against Staphylococcus aureus and Streptococcus pyogenes: Balancing Bioavailability, Safety, and Antimicrobial Activity” (ACS Omega, 2025):
≈ marks a conversion by molar mass, not a printed value.

How the values were obtained:
S. intemrdius c.i. = experiment: MIC/MBC broth microdilution, S. intermedius; type: cell-based, Staphylococcus intermedius
Protocol: (§1) S. aureus (ATCC 29213),S. pyogenes (ATCC 19615),Streptococcus agalactiae (ATCC 27956),Escherichia coli (ATCC 25922),Proteus vulgaris (ATCC 6896),K. pneumoniae (ATCC 700603) andP. aeruginosa (ATCC 10145) reference strains, as well asStaphylococcus cohnii, Enterococcus faecalis, Staphylococcus schleiferi, Staphylococcus intermedius and Streptococcus mutans clinical isolates, were used to test the antibacterial activity of the peptidomimetics. Bacteria were aerobically cultured for 18 h at 37 °C in plates with sterilized brain heart infusion (BHI) broth (Sigma-Aldrich, USA) media mixed with bacteriological agar (Sigma-Aldrich, USA) using the streak plate method. After 18 h, BHI broth was inoculated to 0.5 on the McFarland scale and diluted to approximately 10^5 CFU/mL. To achieve a final stock concentration of 1024 μg/mL, the peptidomimetics were dissolved in sterile water, and 5–10% of absolute ethanol or dimethyl sulfoxide (DMSO) was added. The antibacterial activities were determined by using the standard broth microdilution method of the National Committee for Clinical Laboratory Standards. The process involved adding serially diluted peptidomimetics to consecutive wells of a 96-well microtiter plate (Brand, Germany) holding media with microorganisms. The inoculated plates treated with peptides were then placed in an incubator at 37 °C for 18 h. The MIC value was determined as the lowest concentration of peptidomimetic at which there was no obvious growth (equal or more than 90% of the untreated sample). […] The lowest concentration yielding growth in no more than 3 colonies, corresponding to at least a 99.9% kill rate, was taken as MBC. Each biological replicate included control wells with the addition of water, DMSO, and ethanol as respective solvent controls. All experiments were conducted with consistent adherence to growth and sterility controls and were performed at least in technical triplicate with three biological repeats.

S. agalactiae ATCC 27956 = experiment: MIC/MBC broth microdilution, S. agalactiae; type: cell-based, Streptococcus agalactiae; details: S. agalactiae
Protocol: as §1

S. pyogenes ATCC 19615 = experiment: MIC/MBC broth microdilution, S. pyogenes; type: cell-based, Streptococcus pyogenes; details: S. pyogenes
Protocol: as §1

[1] = tested on: immortalized human HaCaT keratinocytes; experiment: XTT cell proliferation assay, keratinocytes; type: cell-based
Protocol: (§2) In our study, we used two distinct cell types: immortalized human HaCaT keratinocytes (DKFZ, Heidelberg, Germany) and a human dermal fibroblast cell line (46BR.1N). […] Cultures were maintained in a humidified atmosphere with 5% CO2 at 37 °C in 25 cm^2 culture flasks with the medium replenished every 2 days. The condition of the cells was monitored using optical microscopy. […] After 24 h of incubation, the medium was replaced with serum-free HG-DMEM containing appropriate concentrations of peptidomimetics. All solutions used in the experiments were prepared with double-distilled water or with the addition of ethanol under sterile conditions to ensure compatibility with the conditions of the bacteriological assay. For 72 h of incubation, half of the medium was replaced with fresh medium after 48 h, and cells were stimulated with peptides for a second time. The XTT cell proliferation assay was then performed according to the manufacturer’s instructions (Roche, Switzerland). Cells were treated with the peptides for either 48 or 72 h, followed by the addition of XTT reagent, and the plates were then incubated at 37 °C in a 5% CO2 environment for 4 h. Plate readings were taken using a standard plate reader at a wavelength of 490 nm (OD = 490 nm). […] Statistical significance was determined with a Mann–Whitney U test with statistical significance p ≤ 0.05. Analysis was performed with Statistica software, and graphs were prepared in GraphPad Prism.

E. faecalis c.i. = experiment: MIC/MBC broth microdilution, E. faecalis; type: cell-based, Enterococcus faecalis
Protocol: as §1

[2] = tested on: K. pneumoniae ATCC 700603; experiment: MIC/MBC broth microdilution, K. pneumoniae; type: cell-based
Protocol: as §1

S. mutans c.i. = experiment: MIC/MBC broth microdilution, S. mutans; type: cell-based, Streptococcus mutans
Protocol: as §1

P. vulgaris ATCC 6896 = experiment: MIC/MBC broth microdilution, P. vulgaris; type: cell-based, Proteus vulgaris
Protocol: as §1

fibroblasts (46BR.1N) = experiment: LDH cytotoxicity test, fibroblasts; type: cell-based; details: 48 h
Protocol: (§3) In our study, we used two distinct cell types: immortalized human HaCaT keratinocytes (DKFZ, Heidelberg, Germany) and a human dermal fibroblast cell line (46BR.1N). […] Cultures were maintained in a humidified atmosphere with 5% CO2 at 37 °C in 25 cm^2 culture flasks with the medium replenished every 2 days. The condition of the cells was monitored using optical microscopy.
(§4) Cell death in immortalized human keratinocytes (HaCaT) and fibroblasts (46BR.1N) was measured by quantifying the lactate dehydrogenase (LDH) activity using a commercial kit (Roche, Switzerland). Cells were seeded in 96-well plates at a density of 5000 cells per well in DMEM high glucose medium supplemented with 10% FBS. After 24 h of incubation, the medium was replaced with serum-free medium containing various concentrations of peptidomimetics (50, 100, and 150 μg/mL). After 48 h, supernatants were collected for LDH analysis. Plate readings were taken spectrophotometrically using a 450 nm wavelength. Cell death measurements were normalized to an untreated control (0%), with 1% Triton X-100 detergent used as a positive control to induce maximum LDH release, indicating maximal cytotoxicity. Statistical significance was determined with a Mann–Whitney U test with a statistical significance p ≤ 0.05. Analysis was performed with Statistica software (Krakow, Poland) and graphs were prepared in GraphPad Prism (Boston, USA).

[3] = tested on: human dermal fibroblast cell line (46BR.1N); experiment: XTT cell proliferation assay, fibroblasts; type: cell-based
Protocol: as §2

S. cohnii c.i. = experiment: MIC/MBC broth microdilution, S. cohnii; type: cell-based, Staphylococcus cohnii
Protocol: as §1

S. schleiferi c.i. = experiment: MIC/MBC broth microdilution, S. schleiferi; type: cell-based, Staphylococcus schleiferi
Protocol: as §1

S. aureus ATCC 43300 = experiment: MIC/MBC broth microdilution, S. aureus; type: cell-based, Staphylococcus aureus; details: for MBC / MIC: S. aureus
E. coli ATCC 25922 = experiment: MIC/MBC broth microdilution, E. coli; type: cell-based, Escherichia coli
Protocol: as §1

P. aeruginosa ATCC 10145 = experiment: MIC/MBC broth microdilution, P. aeruginosa; type: cell-based
Protocol: as §1

[4] = tested on: immortalized human keratinocytes (HaCaT); experiment: LDH cytotoxicity test, keratinocytes; type: cell-based; details: 48 h
Protocol: as §3, §4

[5] = XTT, 48 and 72 h, 0.01–150 μg/mL
[6] = up to 150 μg/mL, A-193 and A-179 after 48 h

With CC(C)C[C@H](NC(=O)[C@H](CCCNC(=N)N)NC(=O)OCc1ccccc1)C(=O)N[C@H](CNC(=O)C(=Cc1ccccc1)c1ccccc1)C(C)C [Compound A-164] the MBC (S. intemrdius c.i.; H2O) was 32 µg/mL (≈ 44.9 µM), the MIC (S. intemrdius c.i.; H2O) was 16 µg/mL (≈ 22.5 µM) and the MBC (S. intemrdius c.i.; water additive DMSO) was 8 µg/mL (≈ 11.2 µM). The MIC (S. intemrdius c.i.; water additive DMSO) was 4 µg/mL (≈ 5.62 µM), the MBC (S. intemrdius c.i.; water additive EtOH) was 16 µg/mL (≈ 22.5 µM) and the MIC (S. intemrdius c.i.; water additive EtOH) was 8 µg/mL (≈ 11.2 µM). The MBC (S. agalactiae ATCC 27956; H2O) was 16 µg/mL (≈ 22.5 µM), the MIC (S. agalactiae ATCC 27956; H2O) was 8 µg/mL (≈ 11.2 µM) and the MBC (S. agalactiae ATCC 27956; water additive DMSO) was 32 µg/mL (≈ 44.9 µM). The MIC (S. agalactiae ATCC 27956; water additive DMSO) was 16 µg/mL (≈ 22.5 µM), the MBC (S. agalactiae ATCC 27956; water additive EtOH) was 8 µg/mL (≈ 11.2 µM) and the MIC (S. agalactiae ATCC 27956; water additive EtOH) was 4 µg/mL (≈ 5.62 µM). The MBC (S. pyogenes ATCC 19615; H2O) was 16 µg/mL (≈ 22.5 µM), the MIC (S. pyogenes ATCC 19615; H2O) was 8 µg/mL (≈ 11.2 µM) and the MBC (S. pyogenes ATCC 19615; water additive DMSO) was 16 µg/mL (≈ 22.5 µM). It also gave an MIC (S. pyogenes ATCC 19615; water additive DMSO) of 8 µg/mL (≈ 11.2 µM), an MBC (S. pyogenes ATCC 19615; water additive EtOH) of 8 µg/mL (≈ 11.2 µM) and an MIC (S. pyogenes ATCC 19615; water additive EtOH) of 4 µg/mL (≈ 5.62 µM). For the same compound, the “proliferation relative to control at 50 μg/mL” value ([1]; XTT, 50 μg/mL) was 50%, the “effect on proliferation, in words” value [1, 5] was “negative impact” and the “antiproliferative effect (decrease vs control)” value [1, 6] was “up to 50%”. The MIC (E. faecalis c.i.; H2O) was 32 µg/mL (≈ 44.9 µM), the MBC (E. faecalis c.i.; water additive DMSO) was 32 µg/mL (≈ 44.9 µM) and the MIC (E. faecalis c.i.; water additive DMSO) was 16 µg/mL (≈ 22.5 µM). It also gave an MIC (E. faecalis c.i.; water additive EtOH) of 32 µg/mL (≈ 44.9 µM), an MIC ([2]; H2O) greater than 512 µg/mL and an MIC ([2]; water additive DMSO) greater than 512 µg/mL. For the same compound, the MIC ([2]; water additive EtOH) was greater than 512 µg/mL, the MIC (S. mutans c.i.; H2O) was greater than 512 µg/mL and the MIC (S. mutans c.i.; water additive DMSO) was greater than 512 µg/mL. The MIC (S. mutans c.i.; water additive EtOH) was greater than 512 µg/mL, the MIC (P. vulgaris ATCC 6896; H2O) was greater than 512 µg/mL and the MIC (P. vulgaris ATCC 6896; water additive DMSO) was greater than 512 µg/mL. For the same compound, the MIC (P. vulgaris ATCC 6896; water additive EtOH) was greater than 512 µg/mL, the “cytotoxicity (LDH), in words” value (fibroblasts (46BR.1N); 50-150 μg/mL) was “cytotoxic effects across all of the tested concentrations” and the “concentration at which cytotoxic effect starts” value (fibroblasts (46BR.1N); LDH) was 50 µg/mL. For the same compound, the viability ([3]; 48 h, 50, 100 and 150 μg/mL) was “over 20%”, the “proliferation relative to control at 50 μg/mL” value ([3]; XTT, 50 μg/mL) was 50% and the “effect on proliferation, in words” value [3, 5] was “negative impact”. For the same compound, the “antiproliferative effect (decrease vs control)” value [3, 6] was “up to 50%”, the MBC (S. cohnii c.i.; water additive DMSO) was 32 µg/mL (≈ 44.9 µM) and the MIC (S. cohnii c.i.; water additive DMSO) was 16 µg/mL (≈ 22.5 µM). For the same compound, the MIC (S. cohnii c.i.; water additive EtOH) was 32 µg/mL (≈ 44.9 µM), the MBC (S. schleiferi c.i.; H2O) was 16 µg/mL (≈ 22.5 µM) and the MIC (S. schleiferi c.i.; H2O) was 8 µg/mL (≈ 11.2 µM). It also gave an MBC (S. schleiferi c.i.; water additive DMSO) of 32 µg/mL (≈ 44.9 µM), an MIC (S. schleiferi c.i.; water additive DMSO) of 16 µg/mL (≈ 22.5 µM) and an MBC (S. schleiferi c.i.; water additive EtOH) of 8 µg/mL (≈ 11.2 µM). It also gave an MIC (S. schleiferi c.i.; water additive EtOH) of 4 µg/mL (≈ 5.62 µM), an MBC (S. aureus ATCC 43300; H2O) of 16 µg/mL (≈ 22.5 µM) and an MIC (S. aureus ATCC 43300; H2O) of 8 µg/mL (≈ 11.2 µM). The MBC (S. aureus ATCC 43300; water additive DMSO) was 16 µg/mL (≈ 22.5 µM), the MIC (S. aureus ATCC 43300; water additive DMSO) was 8 µg/mL (≈ 11.2 µM) and the MBC (S. aureus ATCC 43300; water additive EtOH) was 16 µg/mL (≈ 22.5 µM). The MIC (S. aureus ATCC 43300; water additive EtOH) was 8 µg/mL (≈ 11.2 µM), the “MIC value for S. aureus” value (S. aureus ATCC 43300; additive not stated) was 8 µg/mL and the MIC (E. coli ATCC 25922; H2O) was greater than 512 µg/mL. The MIC (E. coli ATCC 25922; water additive DMSO) was greater than 512 µg/mL, the MIC (E. coli ATCC 25922; water additive EtOH) was greater than 512 µg/mL and the MIC (P. aeruginosa ATCC 10145; H2O) was greater than 512 µg/mL. The MIC (P. aeruginosa ATCC 10145; water additive DMSO) was greater than 512 µg/mL, the MIC (P. aeruginosa ATCC 10145; water additive EtOH) was greater than 512 µg/mL and the “cytotoxicity (LDH), in words” value ([4]; 50-150 μg/mL) was “cytotoxic effects across all of the tested concentrations”. For the same compound, the “concentration at which cytotoxic effect starts” value ([4]; LDH) was 50 µg/mL.
